Measurements reported in patent publication US9169254B2, “Spiroimidazolone derivative” (Chugai Seiyaku Kabushiki Kaisha, priority 2009, dated 2015).

Target: T1, human PTH1 receptor (Homo sapiens, UniProt Q03431)
T1 sequence (Q03431 27-593): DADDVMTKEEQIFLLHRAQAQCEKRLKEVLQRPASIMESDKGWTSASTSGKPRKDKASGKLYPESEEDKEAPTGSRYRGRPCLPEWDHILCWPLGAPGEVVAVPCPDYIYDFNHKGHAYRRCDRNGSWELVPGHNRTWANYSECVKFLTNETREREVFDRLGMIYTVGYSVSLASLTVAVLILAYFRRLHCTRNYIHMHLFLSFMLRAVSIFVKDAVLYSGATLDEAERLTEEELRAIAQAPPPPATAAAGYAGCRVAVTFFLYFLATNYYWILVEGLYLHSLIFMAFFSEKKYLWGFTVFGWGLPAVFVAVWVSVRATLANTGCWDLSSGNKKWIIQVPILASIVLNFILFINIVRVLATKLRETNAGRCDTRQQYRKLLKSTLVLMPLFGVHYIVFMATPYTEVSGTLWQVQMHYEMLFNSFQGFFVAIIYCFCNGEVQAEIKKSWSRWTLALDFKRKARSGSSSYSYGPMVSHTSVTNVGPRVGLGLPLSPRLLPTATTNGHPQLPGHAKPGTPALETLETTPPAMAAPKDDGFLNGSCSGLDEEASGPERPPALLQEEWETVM
Experiment: In vitro cAMP signal activity in HKRK-B7 cells (LLC-PK1 cells overexpressing the human PTH1 receptor)
Format: cell-based
Details: HKRK-B7 cells; compound at 1×10^−3 M; cAMP produced as percentage of that produced by hPTH(1-34) at 100 nM

cAMP production activity (%) | Structure (SMILES)
86 | Cc1cc(C(=O)N2CCC(C)(O)CC2)cc(C)c1/C=C/S(=O)(=O)N1CCC2(CC1)N=C(c1ccc(Cl)c(OC(C)(C)C(F)(F)F)c1)NC2=O [Compound 1210, 2-[4-chloro-3-(2,2,2-trifluoro-1,1-dimethyl-ethoxy)-phenyl]-8-{(E)-2-[4-(4-hydroxy-4-methyl-piperidine-1-carbonyl)-2,6-dimethyl-phenyl]-ethenesulfonyl}-1,3,8-triaza-spiro[4.5]dec-1-en-4-one]
87 | Cc1cc(CNC(N)=O)cc(C)c1CCS(=O)(=O)N1CCC2(CC1)N=C(C1CCC(CCC(F)(F)F)CC1)NC2=O (stereo not drawn) [Compound 1313, [3,5-Dimethyl-4-(2-{4-oxo-2-[4-(3,3,3-trifluoro-propyl)-cyclohexyl]-1,3,8-triaza-spiro[4.5]dec-1-ene-8-sulfonyl}-ethyl)-benzyl]-urea]
95 | Cc1cc(N(C)C(N)=O)cc(C)c1/C=C/S(=O)(=O)N1CCC2(CC1)N=C(c1ccc(CCCC(F)(F)F)cc1)NC2=O [Compound 1088, 1-[3,5-Dimethyl-4-((E)-2-{4-oxo-2-[4-(4,4,4-trifluoro-butyl)-phenyl]-1,3,8-triaza-spiro[4.5]dec-1-ene-8-sulfonyl}-vinyl)-phenyl]-1-methyl-urea]
79 | Cc1cc(N(C)C(N)=O)cc(C)c1CCS(=O)(=O)N1CCC2(CC1)N=C(C(C)(F)F)NC2=O [Compound 1311, 1-(4-{2-[2-(1,1-difluoro-ethyl)-4-oxo-1,3,8-triaza-spiro[4.5]dec-1-ene-8-sulfonyl]-ethyl}-3,5-dimethyl-phenyl)-1-methyl-urea]
88 | Cc1cc(C2=NC3(CCN([S@TB17](=O)(=O)/C=C/c4c(C)cc(C(=O)N5CCC(C)(O)CC5)cc4C)CC3)C(=O)N2)ccc1F [Compound 1098, 2-(4-fluoro-3-methyl-phenyl)-8-{(E)-2-[4-(4-hydroxy-4-methyl-piperidine-1-carbonyl)-2,6-dimethyl-phenyl]-ethenesulfonyl}-1,3,8-triaza-spiro[4.5]dec-1-en-4-one]
85 | Cc1cc(N(C)C(N)=O)cc(C)c1CCS(=O)(=O)N1CCC2(CC1)N=C(C1C[C@@H](C)[C@@H](C)C1)NC2=O (stereo partly drawn) [Compound 1051, 1-(4-{2-[2-(cis-3,4-dimethyl-cyclopentyl)-4-oxo-1,3,8-triaza-spiro[4.5]dec-1-ene-8-sulfonyl]-ethyl}-3,5-dimethyl-phenyl)-1-methyl-urea]
48 | Cc1cc2ccc1CCS(=O)(=O)N1CCC3(CC1)N=C(NC3=O)c1cc(cc(C(F)(F)F)c1)OCC/C=C/CCCCCCN(C)C2=O [Compound 1416]
73 | CC(=O)Nc1ccc(CCS(=O)(=O)N2CCC3(CC2)N=C(Nc2ccc(C(F)(F)F)cc2)NC3=O)c(C)c1 [Compound 1401, N-(3-Methyl-4-{2-[4-oxo-2-(4-trifluoromethyl-phenylamino)-1,3,8-triaza-spiro[4.5]dec-1-ene-8-sulfonyl]-ethyl}-phenyl)-acetamide]

More lines, now with the values behind:

Structure (SMILES) | cAMP production activity (%)
Cc1cc(CO)cc(C)c1CCS(=O)(=O)N1CCC2(CC1)N=C(C1CCC(CCC(F)(F)F)CC1)NC2=O (stereo not drawn) [Compound 770, 8-[2-(4-hydroxymethyl-2,6-dimethyl-phenyl)-ethanesulfonyl]-2-[4-(3,3,3-trifluoro-propyl)-cyclohexyl]-1,3,8-triaza-spiro[4.5]dec-1-en-4-one] | 105
Cc1cc(N2C(=O)CN(C)C2=O)cc(C)c1/C=C/S(=O)(=O)N1CCC2(CC1)N=C(C1CCC(CCC(F)(F)F)CC1)NC2=O (stereo not drawn) [Compound 548, 3-[3,5-dimethyl-4-((E)-2-{4-oxo-2-[4-(3,3,3-trifluoro-propyl)-cyclohexyl]-1,3,8-triaza-spiro[4.5]dec-1-ene-8-sulfonyl}-vinyl)-phenyl]-1-methyl-imidazolidine-2,4-dione] | 88
Cc1cc(OC2CCN(C(=O)OC(C)(C)C)CC2)ccc1/C=C/S(=O)(=O)N1CCC2(CC1)N=C(c1cccc(OC(F)(F)F)c1)NC2=O [Compound 602, 4-(3-methyl-4-{(E)-2-[4-oxo-2-(3-trifluoromethoxy-phenyl)-1,3,8-triaza-spiro[4.5]dec-1-ene-8-sulfonyl]-vinyl}-phenoxy)-piperidine-1-carboxylic acid tert-butyl ester] | 3.0
CC(=O)N[C@@H]1CCN(C(=O)c2ccc(CCS(=O)(=O)N3CCC4(CC3)N=C(c3cccc(C(F)(F)F)c3)NC4=O)c(C)c2)C1 [Compound 353, N—[(R)-1-(3-methyl-4-{2-[4-oxo-2-(3-trifluoromethyl-phenyl)-1,3,8-triaza-spiro[4.5]dec-1-ene-8-sulfonyl]-ethyl}-benzoyl)-pyrrolidin-3-yl]-acetamide] | 120
O=C1NC(C2CCCCC2)=NC12CCN(S(=O)(=O)/C=C/c1ccc(S(=O)(=O)N(CCO)CCO)cc1C(F)(F)F)CC2 [Compound 496, 4-[(E)-2-(2-cyclohexyl-4-oxo-1,3,8-triaza-spiro[4.5]dec-1-ene-8-sulfonyl)-vinyl]-N,N-bis-(2-hydroxy-ethyl)-3-trifluoromethyl-benzenesulfonamide] | 24
Cc1cc(C(=O)N2CCC(O)CC2)cc(C)c1/C=C/S(=O)(=O)N1CCC2(CC1)N=C(c1cccc(C(F)(F)F)c1)NC2=O [Compound 384, 8-{(E)-2-[4-(4-hydroxy-piperidine-1-carbonyl)-2,6-dimethyl-phenyl]-ethenesulfonyl}-2-(3-trifluoromethyl-phenyl)-1,3,8-triaza-spiro[4.5]dec-1-en-4-one] | 61
Cc1cc(N2C(=O)NC(C)C2=O)cc(C)c1CCS(=O)(=O)N1CCC2(CC1)N=C(C1CCC(C)CC1)NC2=O (stereo not drawn) [Compound 767, 3-(3,5-dimethyl-4-{2-[2-(4-methyl-cyclohexyl)-4-oxo-1,3,8-triaza-spiro[4.5]dec-1-ene-8-sulfonyl]-ethyl}-phenyl)-5-methyl-imidazolidine-2,4-dione] | 83
O=C1NC(CCCCCCCC(F)(F)C(F)(F)F)=NC12CCN(S(=O)(=O)CCc1cccc3c1ccn3C[C@H](O)CO)CC2 [Compound 788, 8-{2-[1-((S)-2,3-dihydroxy-propyl)-1H-indol-4-yl]-ethanesulfonyl}-2-(8,8,9,9,9-pentafluoro-nonyl)-1,3,8-triaza-spiro[4.5]dec-1-en-4-one] | 142
CC(=O)Nc1ccc(CCS(=O)(=O)N2CCC3(CC2)N=C([C@H]2CC[C@@H](OCCCF)CC2)NC3=O)c(C)c1 [Compound 914, N-[4-(2-{2-[4-(3-fluoro-propoxy)-cyclohexyl]-4-oxo-1,3,8-triaza-spiro[4.5]dec-1-ene-8-sulfonyl}-ethyl)-3-methyl-phenyl]-acetamide] | 68
Cc1cc(S(=O)(=O)NCC(=O)N(C)C)ccc1/C=C/S(=O)(=O)N1CCC2(CC1)N=C(c1cccc(C(F)(F)F)c1)NC2=O [Compound 590, N,N-Dimethyl-2-(3-methyl-4-{(E)-2-[4-oxo-2-(3-trifluoromethyl-phenyl)-1,3,8-triaza-spiro[4.5]dec-1-ene-8-sulfonyl]-vinyl}-benzenesulfonylamino)-acetamide] | 70
CC(=O)Nc1cc(C)c(CCS(=O)(=O)N2CCC3(CC2)N=C(C2CCCCC2)NC3=O)c(C)c1 [Compound 302, N-{4-[2-(2-cyclohexyl-4-oxo-1,3,8-triaza-spiro[4.5]dec-1-ene-8-sulfonyl)-ethyl]-3,5-dimethyl-phenyl}-acetamide] | 95
CC(=O)Nc1ccc(CCS(=O)(=O)N2CCC3(CC2)N=C([C@H]2CC[C@H](/C=C/C(F)F)CC2)NC3=O)c(C)c1 [Compound 916, N-[4-(2-{2-[4-((E)-3,3-difluoro-propenyl)-cyclohexyl]-4-oxo-1,3,8-triaza-spiro[4.5]dec-1-ene-8-sulfonyl}-ethyl)-3-methyl-phenyl]-acetamide] | 59
Cc1cc(C(=O)N(C)C)ccc1-c1ccc(S(=O)(=O)N2CCC3(CC2)N=C(c2cccc(OC(F)(F)F)c2)NC3=O)cc1 [Compound 336, 2-methyl-4′-[4-oxo-2-(3-trifluoromethoxy-phenyl)-1,3,8-triaza-spiro[4.5]dec-1-ene-8-sulfonyl]-biphenyl-4-carboxylic acid dimethylamide] | 28
Cc1cc(C(=O)N2CC(F)(F)C(F)(F)C2)ccc1/C=C/S(=O)(=O)N1CCC2(CC1)N=C(C1CCCCC1)NC2=O [Compound 203, 2-cyclohexyl-8-{(E)-2-[2-methyl-4-(3,3,4,4-tetrafluoro-pyrrolidine-1-carbonyl)-phenyl]-ethenesulfonyl}-1,3,8-triaza-spiro[4.5]dec-1-en-4-one] | 25
Cc1cc(S(=O)(=O)NCCN(C)C)ccc1CCS(=O)(=O)N1CCC2(CC1)N=C(C1CCCCC1)NC2=O [Compound 844, 4-[2-(2-cyclohexyl-4-oxo-1,3,8-triaza-spiro[4.5]dec-1-ene-8-sulfonyl)-ethyl]-N-(2-dimethylamino-ethyl)-3-methyl-benzenesulfonamide] | 86
O=C1NC(C2CCCCC2)=NC12CCN(S(=O)(=O)/C=C/c1cc3nc[nH]c3cc1C(F)(F)F)CC2 [Compound 499, 2-cyclohexyl-8-[(E)-2-(6-trifluoromethyl-1H-benzimidazol-5-yl)-ethenesulfonyl]-1,3,8-triaza-spiro[4.5]dec-1-en-4-one] | 40
